Reference: patent US9352015B2, “Antimicrobial peptides” (priority 2009, dated 2016)
Converted amounts (≈) assume the structure as drawn. Where two headings read alike, the source gives them in different places.

System: Methicillin Resistant Staphylococcus aureus (MRSA) and Staphylococcus aureus
Type: cell-based
Conditions: Mueller Hinton medium; for MIC: 24 hours at 37° C.
Outline: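 MICs by microtiter broth dilution in triplicate determinations, mostly LB no-salt medium (sometimes MH or BHI), final inoculum 5×10^5 CFU/ml (1×10^5 CFU/ml in the MH variant), 24 h at 37 °C. MIC is the lowest peptide concentration inhibiting growth; tested on 20 clinical MRSA and S. aureus isolates.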

CC[C@@H](C)[C@@H](NC(=O)[C@@H](C)NC(=O)[C@@H](CCCCN)NC(=O)[C@@H](CC(C)C)NC(=O)[C@@H](C)NC(=O)[C@H](NC(=O)[C@@H](Cc1c[nH]cn1)NC(=O)[C@@H](CC(C)C)NC(=O)[C@H](NC(=O)[C@H](NC(=O)[C@@H](CCCCN)NC(=O)[C@@H](CCCCN)NC(=O)[C@@H](C)NC(=O)[C@@H](CO)NC(=O)[C@@H](CCCCN)NC(=O)[C@@H](Cc1ccccc1)NC(=O)[C@H](NC(=O)[C@@H](CCCCN)NC(=O)[C@@H](CC(C)C)NC(=O)[C@@H](Cc1ccccc1)NC(=O)[C@@H](CO)NC(=O)[C@@H](CCCCN)NC(=O)[C@@H](Cc1c[nH]c2ccccc12)NC(=O)[C@@H](CCCCN)NC(C)=O)[C@H](C)O)[C@H](C)O)C(C)C)[C@H](C)O)C(=O)N[C@H](CO)C(=O)N[C@H](CO)C(N)=O [Peptide D1, Ac-KWKSFLKTFKSAKKTVLHTALKAISS-amide] showed an MIC (S. aureus strain 1) of 23.9 µM (≈ 71.5 µg/mL), an MIC (S. aureus strain 2, R (MRSA resistant to Oxacillin)) of 12.0 µM (≈ 35.9 µg/mL) and an MIC (S. aureus strain 3) of 23.9 µM (≈ 71.5 µg/mL). The MIC (S. aureus strain 4, R (MRSA resistant to Oxacillin)) was 23.9 µM (≈ 71.5 µg/mL), the MIC (S. aureus strain 5) was 23.9 µM (≈ 71.5 µg/mL) and the MIC (S. aureus strain 6) was 23.9 µM (≈ 71.5 µg/mL). The MIC (S. aureus strain 7, R (MRSA resistant to Oxacillin)) was 3.0 µM (≈ 8.97 µg/mL), the MIC (S. aureus strain 8) was 95.5 µM (≈ 286 µg/mL) and the MIC (S. aureus strain 9, R (MRSA resistant to Oxacillin)) was 12.0 µM (≈ 35.9 µg/mL). It also gave an MIC (S. aureus strain 10) of 12.0 µM (≈ 35.9 µg/mL), an MIC (S. aureus strain 11, R (MRSA resistant to Oxacillin)) of 12.0 µM (≈ 35.9 µg/mL) and an MIC (S. aureus strain 12, R (MRSA resistant to Oxacillin)) of 6.0 µM (≈ 17.9 µg/mL). For the same molecule, the MIC (S. aureus strain 13) was 1.5 µM (≈ 4.49 µg/mL), the MIC (S. aureus strain 14, R (MRSA resistant to Oxacillin)) was 6.0 µM (≈ 17.9 µg/mL) and the MIC (S. aureus strain 15) was 47.7 µM (≈ 143 µg/mL). It also gave an MIC (S. aureus strain 16, R (MRSA resistant to Oxacillin)) of 23.9 µM (≈ 71.5 µg/mL), an MIC (S. aureus strain 17) of 23.9 µM (≈ 71.5 µg/mL) and an MIC (S. aureus strain 18) of 23.9 µM (≈ 71.5 µg/mL). The MIC (S. aureus strain 19) was 47.7 µM (≈ 143 µg/mL), the MIC (S. aureus strain 20) was 12.0 µM (≈ 35.9 µg/mL) and the “MIC GM (geometric mean)” value (geometric mean of the MIC values from 20 different isolates of MRSA/SA) was 15.7 µM (≈ 47 µg/mL).
